Measured values from patent publication US10717753B2, “Deuterium-modified brigatinib derivatives, pharmaceutical compositions comprising same, and use thereof” (Chia Tai Tianqing Pharmaceutical Group Co., Ltd., priority 2015, dated 2020).

Legend:
[1] = Stability in monkey liver microsomes in vitro; format: in vitro ADME; details: for half-life at 0.01 μmol/L: monkey liver microsomes 0.5 mg/mL protein, NADPH, 37° C., 1 μmol/L test compound; for half-life period compared to the original drug Brigatinib: monkey liver microsomes, statement in words; for Prolonging rates: prolongation of t1/2 in monkey liver microsomes versus Brigatinib
Description: 300 μL of a final incubation system contains 30 μL of monkey liver microsomes (protein concentration: 0.5 mg/mL, American BD Company), 30 μL of NADPH+MgCl2, 3 μL of a substrate (a solution of 1 μmol/L test compound in acetonitrile) and 237 μL of PBS buffer solution. The above incubation system was made in duplicate, each of 0.3 mL.
For each sample, an evenly mixed solution of the substrate and enzyme with a total volume of 270 μL was first prepared, and after pre-incubation at 37° C. for 5 min, 30 μL of NADPH+MgCl2 was added and mixed. 40 μL of the reaction solution was taken respectively at 0, 15, 30, 60 and 90 min, and the reaction was stopped by 300 μL of ice-cold acetonitrile containing an internal standard. In addition, three blanks (KB) were set, each of 300 μL (KB1: no NADPH; KB2: no substrate; KB3: no enzyme).
40 μL of the incubation sample was pipetted out, added with 400 μL of ice-cold acetonitrile containing an internal standard, vortexed for 5 min and centrifuged (13000 rpm, 4° C.) for 10 min. 80 μL of the supernatant was pipetted out in a loading plate, and then 80 μL of 50% acetonitrile aqueous solution was added to the plate and mixed. 1 μL of the mixture was pipetted out for LC/MS/MS assay and the chromatogram was recorded.

[2] = system: human lung cancer cell NCI-H3122; assay: Inhibition of proliferation in vitro, SRB method; format: cell-based; details: NCI-H3122 cells expressing EML4-ALK fusion protein, 72 hours, mean±standard deviation
Description: 1.1 Cells: human lung cancer cell line NCl—H3122, expressing EML4-ALK fusion protein.
1.2 Main reagents: sulfonyl rhodamine B, RPMI-1640 liquid medium, dimethyl sulfoxide (DMSO), trichloromethane (chloroform).
1.3 Instruments: Varioskan Flash microplate reader.
1.4 Solution preparation: an appropriate amount of a series of test compounds was taken and dissolved using 5% chloroform+95% DMSO, to form a stock solution of 20 mM, which was stored at −20° C. in aliquots. The positive drug Crizotinib was taken and dissolved using 5% chloroform+95% DMSO, and the stock solution was diluted with fresh medium to a working concentration before use. 95 μl DMSO and 5 μl chloroform were taken, mixed together, and diluted with fresh medium to a working concentration before use.
The tumor cell line used in tests was cultured in RPM11640 medium containing 10% inactivated Hyclone serum or fetal bovine serum, 100 IU/mL penicillin and 100 IU/mL streptomycin, in a 5% CO2 incubator at 37° C. NCl—H3122 cells were inoculated into a 96-well plate at 5000/well. It was ensured that the cells were in logarithmic growth phase during the whole test.
Groups of series of test compounds, negative control and Crizotinib (positive control) were set up in this test. For each test compound group, 6 concentration gradients by 3-fold serial dilution were set, and three wells were for each concentration. For positive control group, 6 concentration gradients by 3-fold serial dilution were set, and three wells were for each concentration. Negative control was 5% chloroform+95% DMSO (the same concentration as that of test compound at 100 nM), and 6 wells were set.
After the cells were treated with the drugs for 72 hours, the culture medium was discarded. A pre-chilled 10% trichloroacetic acid (TCA) solution was added into each well to fix the cells and the plate was placed in a refrigerator at 4° C. to fix. Each well of the plate was washed with deionized water for 5 times to remove trichloroacetic acid solution. After being dried in air, each well was added with SRB solution (4 mg/ml) prepared with 1% acetic acid and then kept for 20 minutes at room temperature. After the liquid was discarded, each well was washed with 1% acetic acid for 5 times to remove uncombined SRB dye, and then dried in air. An appropriate volume of 10 mM Tris-base (trimethylolamine methane) solution at pH 10.5 was added into each well to dissolve the cells. The plate was shaken on a plate shaker for 10 minutes. The absorbance (OD) value was measured at a wavelength of 490 nm in a microplate reader.
According to the OD values measured by microplate reader, an inhibition rate was calculated as the following formula: Survival rate (%)=OD of drug well/OD of control well×100%,
If the survival rate was ≥100%, it was recorded as 100%.
Using Calcusyn software, IC50 was calculated, and mean and standard deviation thereof were calculated, and the data was expressed as: mean±standard deviation.

Structure (SMILES) | half-life at 0.01 μmol/L [1] | Prolonging rates [1] | IC50 [2] | half-life period compared to the original drug Brigatinib [1]
[2H]C1([2H])N(C)C([2H])([2H])C([2H])([2H])N(C2CCN(c3ccc(Nc4ncc(Cl)c(Nc5ccccc5P(C)(C)=O)n4)c(OC)c3)CC2)C1([2H])[2H] [Compound I-6, (2-((5-chloro-2-((2-methoxy-4-(4-(4-methyl[D8]piperazin-1-yl)piperidin-1-yl)phenyl)amino)pyrimidin-4-yl)amino)phenyl)dimethyl phosphorus oxide] | 3.72 h | 31% | 9.99 ± 2.31 nM | significantly prolong the half-life period
[2H]C1([2H])CN(C)CC([2H])([2H])N1C1CCN(c2ccc(Nc3ncc(Cl)c(Nc4ccccc4P(C)(C)=O)n3)c(OC)c2)CC1 [Compound I-4, (2-((5-chloro-2-((2-methoxy-4-(4-(4-methyl[2,2,6,6-D4]piperazin-1-yl)piperidine-1-yl)phenyl)amino)pyrimidin-4-yl)amino)phenyl)dimethyl phosphorus oxide] | 2.93 h | 4% | 11.1 ± 2.07 nM | 
[2H]C1([2H])CN(C2CCN(c3ccc(Nc4ncc(Cl)c(Nc5ccccc5P(C)(C)=O)n4)c(OC)c3)CC2)CC([2H])([2H])N1C [Compound I-9, (2-((5-chloro-2-((2-methoxy-4-(4-(4-methyl[3,3,5,5-D4]piperazin-1-yl)piperidin-1-yl)phenyl)amino)pyrimidin-4-yl)amino)phenyl)dimethyl phosphorus oxide] | 3.57 h | 26% | 7.65 ± 1.07 nM | 
C[C@@H](Oc1cc(-c2cnn(C3CCNCC3)c2)cnc1N)c1c(Cl)ccc(F)c1Cl [Crizotinib, reference compound] |  |  | 11.1 ± 0.69 nM | 
[2H]C([2H])([2H])N1C([2H])([2H])CN(C2CCN(c3ccc(Nc4ncc(Cl)c(Nc5ccccc5P(C)(C)=O)n4)c(OC)c3)CC2)CC1([2H])[2H] [Compound I-7] | 3.78 h | 34% | 9.89 ± 0.76 nM | significantly prolong the half-life period

Now from value to molecule, other results behind:

half-life at 0.01 μmol/L [1] | Prolonging rates [1] | IC50 [2] | Structure (SMILES) | half-life period compared to the original drug Brigatinib [1]
3.82 h | 35% | 10 ± 1.05 nM | [2H]C([2H])([2H])Oc1cc(N2CCC(N3CCN(C)CC3)CC2)ccc1Nc1ncc(Cl)c(Nc2ccccc2P(C)(C)=O)n1 [Compound I-1, (2-((5-chloro-2-((2-[D3]methoxy-4-(4-(4-methylpiperazin-1-yl)piperidin-1-yl)phenyl)amino)pyrimidin-4-yl)amino)phenyl)dimethyl phosphorus oxide] | significantly prolong the half-life period
2.83 h |  | 13.3 ± 1.6 nM | COc1cc(N2CCC(N3CCN(C)CC3)CC2)ccc1Nc1ncc(Cl)c(Nc2ccccc2P(C)(C)=O)n1 [Brigatinib, 5-chloro-N^4-[2-(dimethylphosphonyl)phenyl]-N^2-{2-methoxy-4-[4-(4-methylpiperazin-1-yl)piperidin-1-yl]phenyl}pyrimidine-2,4-diamine] | 
3.93 h | 39% | 9.45 ± 1.79 nM | [2H]C([2H])([2H])N1CCN(C2CCN(c3ccc(Nc4ncc(Cl)c(Nc5ccccc5P(C)(C)=O)n4)c(OC)c3)CC2)CC1 [Compound I-2, (2-((5-chloro-2-((2-methoxy-4-(4-(4-[D3]methylpiperazin-1-yl)piperidin-1-yl)phenyl)amino)pyrimidin-4-yl)amino)phenyl)dimethyl phosphorus oxide] | significantly prolong the half-life period
3.32 h | 17% | 12.7 ± 2.37 nM | [2H]C([2H])([2H])Oc1cc(N2CCC(N3CCN(C([2H])([2H])[2H])CC3)CC2)ccc1Nc1ncc(Cl)c(Nc2ccccc2P(C)(C)=O)n1 [Compound I-3, (2-((5-chloro-2-((2-[D3]methoxy-4-(4-(4-[D3]methylpiperazin-1-yl)piperidin-1-yl)phenyl)amino)pyrimidin-4-yl)amino)phenyl)dimethyl phosphorus oxide] | 
